US20220132847A1, “CINNOLINIUM COMPOUNDS FOR USE IN A METHOD OF CONTROLLING UNWANTED PLANT GROWTH” (SYNGENTA CROP PROTECTION AG, priority 2019, published 2022)
Counter-ions that a name gives are not always drawn.

How the values were obtained:
Assay in all cases: Post-emergence efficacy, glasshouse
Format in all cases: in vivo
[1] = test system: Amaranthus palmeri (AMAPA); details: Amaranthus palmeri, post-emergence, 312 h, evaluated after 13 days, 100=total damage to plant, 0=no damage to plant, read-out: Control of weed species after post-emergence application, AMAPA; for pest or weed control at 1000 g/ha: Application Rate 1000 g/Ha
Outline: (§1)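 Plants grown 14 days in standard soil in pots in the glasshouse (24/16° C. day/night, 14 h light, 65% humidity) were sprayed with test compound diluted in 0.25% or 1% Empicol ESC70 plus 1% ammonium sulphate in water. Damage was scored 13 days later (0 = none, 100 = total).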

[2] = test system: Chenopodium album (CHEAL); details: Chenopodium album, post-emergence, 312 h, evaluated after 13 days, 100=total damage to plant, 0=no damage to plant, read-out: Control of weed species after post-emergence application, CHEAL; for pest or weed control at 1000 g/ha: Application Rate 1000 g/Ha
Outline: as §1

[3] = test system: Digitaria sanguinalis (DIGSA); details: Digitaria sanguinalis, post-emergence, 312 h, evaluated after 13 days, 100=total damage to plant, 0=no damage to plant, read-out: Control of weed species after post-emergence application, DIGSA; for pest or weed control at 1000 g/ha: Application Rate 1000 g/Ha
Outline: as §1

[4] = test system: Echinochloa crus-galli (ECHCG); details: Echinochloa crus-galli, post-emergence, 312 h, evaluated after 13 days, 100=total damage to plant, 0=no damage to plant, read-out: Control of weed species after post-emergence application, ECHCG; for pest or weed control at 1000 g/ha: Application Rate 1000 g/Ha
Outline: as §1

Eleusine indica (ELEIN) = details: Eleusine indica, post-emergence, 312 h, evaluated after 13 days, 100=total damage to plant, 0=no damage to plant, read-out: Control of weed species after post-emergence application, ELEIN; for pest or weed control at 1000 g/ha: Application Rate 1000 g/Ha
Outline: as §1

[5] = test system: Euphorbia heterophylla (EPHHL); details: Euphorbia heterophylla, post-emergence, 312 h, evaluated after 13 days, 100=total damage to plant, 0=no damage to plant, read-out: Control of weed species after post-emergence application, EPHHL; for pest or weed control at 1000 g/ha: Application Rate 1000 g/Ha
Outline: as §1

[6] = test system: Ipomoea hederacea (IPOHE); details: Ipomoea hederacea, post-emergence, 312 h, evaluated after 13 days, 100=total damage to plant, 0=no damage to plant, read-out: Control of weed species after post-emergence application, IPOHE; for pest or weed control at 1000 g/ha: Application Rate 1000 g/Ha
Outline: as §1

Lolium perenne (LOLPE) = details: Lolium perenne, post-emergence, 312 h, evaluated after 13 days, 100=total damage to plant, 0=no damage to plant, read-out: Control of weed species after post-emergence application, LOLPE; for pest or weed control at 1000 g/ha: Application Rate 1000 g/Ha
Outline: as §1

Setaria faberi (SETFA) = details: Setaria faberi, post-emergence, 312 h, evaluated after 13 days, 100=total damage to plant, 0=no damage to plant, read-out: Control of weed species after post-emergence application, SETFA; for pest or weed control at 1000 g/ha: Application Rate 1000 g/Ha
Outline: as §1

Row | Compound | pest or weed control at 1000 g/ha [1] [%] | pest or weed control at 1000 g/ha [2] [%] | pest or weed control at 1000 g/ha [3] [%] | pest or weed control at 1000 g/ha [4] [%] | pest or weed control at 1000 g/ha (Eleusine indica (ELEIN)) [%] | pest or weed control at 1000 g/ha [5] [%] | pest or weed control at 1000 g/ha [6] [%] | pest or weed control at 1000 g/ha (Lolium perenne (LOLPE)) [%] | pest or weed control at 1000 g/ha (Setaria faberi (SETFA)) [%] | pest or weed control at 500 g/ha ([1]; Application Rate 500 g/Ha) [%] | pest or weed control at 500 g/ha ([2]; Application Rate 500 g/Ha) [%] | pest or weed control at 500 g/ha ([3]; Application Rate 500 g/Ha) [%] | pest or weed control at 500 g/ha ([4]; Application Rate 500 g/Ha) [%] | pest or weed control at 500 g/ha (Eleusine indica (ELEIN); Application Rate 500 g/Ha) [%] | pest or weed control at 500 g/ha ([5]; Application Rate 500 g/Ha) [%] | pest or weed control at 500 g/ha ([6]; Application Rate 500 g/Ha) [%] | pest or weed control at 500 g/ha (Lolium perenne (LOLPE); Application Rate 500 g/Ha) [%] | pest or weed control at 500 g/ha (Setaria faberi (SETFA); Application Rate 500 g/Ha) [%]
1 | CS(=O)(=O)[N-]C(=O)c1c[n+](CC(F)F)nc2ccccc12 [Compound A14, [2-(2,2-difluoroethyl)cinnolin-2-ium-4-carbonyl]-methylsulfonyl-azanide] | 20 | 20 | 40 | 20 | 30 | 40 | 40 | 0 | 30 |  |  |  |  |  |  |  |  | 
2 | CN(C)S(=O)(=O)[N-]C(=O)c1c[n+](C)nc2ccccc12 [Compound A11] | 40 | 60 | 40 | 50 | 30 | 70 | 60 | 20 | 50 |  |  |  |  |  |  |  |  | 
3 | CCCS(=O)(=O)[N-]C(=O)c1c[n+](C)nc2ccccc12 [Compound A33] | 40 | 40 | 80 | 20 | 70 | 80 | 60 | 40 | 40 |  |  |  |  |  |  |  |  | 
4 | C[n+]1cc(C(=O)O)c2ccccc2n1 [Compound A29] | 90 | 90 | 30 | 40 | 20 | 80 | 80 | 40 | 50 |  |  |  |  |  |  |  |  | 
5 | C[n+]1cc(C(=O)[N-]S(=O)(=O)C(F)(F)F)c2ccccc2n1 [Compound A44] | 80 | 40 | 0 | 20 | 0 | 30 | 20 | 0 | 20 |  |  |  |  |  |  |  |  | 
6 | COC(=O)C[n+]1cc(C(=O)[N-]S(C)(=O)=O)c2ccccc2n1 [Compound A15, [2-(2-methoxy-2-oxo-ethyl)cinnolin-2-ium-4-carbonyl]-methylsulfonyl-azanide] | 50 | 30 | 0 | 20 | 0 | 30 | 10 | 10 | 10 |  |  |  |  |  |  |  |  | 
7 | O=C(O)c1c[n+](CCOS(=O)(=O)[O-])nc2ccccc12 [Compound A28, 2-(4-carboxycinnolin-2-ium-2-yl)ethyl sulfate] | 90 | 70 | 70 | 20 | 40 | 30 | 20 | 50 | 40 |  |  |  |  |  |  |  |  | 
8 | COP(=O)([O-])c1c[n+](CC(=O)NS(C)(=O)=O)nc2ccccc12 [Compound A63, [2-[2-(methanesulfonamido)-2-oxo-ethyl]cinnolin-2-ium-4-yl]-methoxy-phosphinate] | 30 | 30 | 70 | 50 | 50 | 70 | 30 | 10 | 60 |  |  |  |  |  |  |  |  | 
9 | COC(=O)CCS(=O)(=O)[N-]C(=O)c1c[n+](C)nc2ccccc12 [Compound A42] | 70 | 60 | 60 | 20 | 80 | 60 | 40 | 10 | 40 |  |  |  |  |  |  |  |  | 
10 | CCOP(=O)([O-])c1c[n+](C(C)C)nc2ccccc12 [Compound A77] |  |  |  |  |  |  |  |  |  | 100 | 90 | 90 | 50 | 100 | 80 | 90 | 30 | 90
11 | C[n+]1cc(C(=O)[N-]S(=O)(=O)C(C)(C)C)c2ccccc2n1 [Compound A36] | 40 | 30 | 10 | 10 | 30 | 20 | 30 | 0 | 30 |  |  |  |  |  |  |  |  | 
12 | C[n+]1cc(P(=O)([O-])O)c2ccccc2n1 [Compound A78, hydroxy-(2-methylcinnolin-2-ium-4-yl)phosphinate] | 30 | 10 | 50 | 50 | 40 | 70 | 10 | 10 | 40 |  |  |  |  |  |  |  |  | 
13 | C[n+]1cc(OCC(=O)O)c2ccccc2n1 [Compound A58] | 80 | 70 | 70 | 10 | 30 | 20 | 20 | 0 | 60 |  |  |  |  |  |  |  |  | 
14 | O=C(O)C[n+]1cc(C(=O)[O-])c2ccccc2n1 [Compound A23, 2-(carboxymethyl)cinnolin-2-ium-4-carboxylate] | 50 | 50 | 70 | 30 | 40 | 20 | 20 | 10 | 30 |  |  |  |  |  |  |  |  | 
